Results reported in patent US20120094897A1, “NOVEL INHIBITORS OF HEPATITIS C VIRUS REPLICATION” (InterMune, Inc., priority 2010, published 2012).

How the values were obtained:
[1] = target: T1, HCV NS3 protease (full-length NS3/NS4A-2 complex) (Hepatitis C virus genotype 1a, UniProt P27958); assay: NS3 Inhibition Assay (NS3-NS4 protease assay, RETS1 substrate); assay type: biochemical; details: NS3/NS4A-2, RETS1 substrate, 10 minutes pre-incubation
T1 construct: Recombinant E. coli or Baculovirus full-length NS3 was diluted to 3.33 μM with assay buffer; host or cells: E. coli or baculovirus (insect cells)
T1 sequence (P27958 1027-1657, one chain of several): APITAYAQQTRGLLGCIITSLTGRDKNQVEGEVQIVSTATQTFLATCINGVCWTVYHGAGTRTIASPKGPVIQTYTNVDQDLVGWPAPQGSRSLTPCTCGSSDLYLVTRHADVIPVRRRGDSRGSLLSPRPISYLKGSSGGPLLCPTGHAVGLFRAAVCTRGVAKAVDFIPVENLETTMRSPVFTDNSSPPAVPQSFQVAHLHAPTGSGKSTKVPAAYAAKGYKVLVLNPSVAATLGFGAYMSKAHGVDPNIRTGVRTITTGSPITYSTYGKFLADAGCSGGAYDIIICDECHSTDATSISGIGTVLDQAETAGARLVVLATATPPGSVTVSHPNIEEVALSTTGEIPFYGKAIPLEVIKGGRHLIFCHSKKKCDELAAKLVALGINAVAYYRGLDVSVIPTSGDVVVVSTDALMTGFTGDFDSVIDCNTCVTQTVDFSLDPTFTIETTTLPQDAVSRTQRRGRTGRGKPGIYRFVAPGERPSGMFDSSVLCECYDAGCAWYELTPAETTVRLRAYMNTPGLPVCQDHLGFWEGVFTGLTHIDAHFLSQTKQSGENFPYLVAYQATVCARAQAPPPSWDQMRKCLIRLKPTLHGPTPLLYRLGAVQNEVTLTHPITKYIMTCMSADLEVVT
Method: NS3 Complex Formation with NS4A-2.
Recombinant E. coli or Baculovirus full-length NS3 was diluted to 3.33 μM with assay buffer and the material was transferred to an eppendorf tube and placed in a water bath in a 4° C. refrigerator. The appropriate amount of NS4A-2 diluted to 8.3 mM in assay buffer was added to an equal the volume of NS3 above (conversion factor—3.8 mg/272 μL assay buffer). The material was transferred to an eppendorf tube and placed in water bath in a 4° C. refrigerator.
After equilibration to 4° C., equal volumes of NS3 and NS4A-2 solutions were combined in an eppendorf tube, mixed gently with a manual pipettor, and incubated for 15 minutes in the 4° C. water bath. Final concentrations in the mixture are 1.67 μM NS3, 4.15 mM NS4A-2 (2485-fold molar excess NS4A-2).
After 15 minutes at 4° C., the NS3/NS4A-2 eppendorf tube was removed and placed in a room temperature water bath for 10 minutes. NS3/NS4A-2 was aliquoted at appropriate volumes and stored at −80° C. (E. coli NS3 run at 2 nM in assay, aliquot at 25 μL. BV NS3 run at 3 nM in assay, aliquot at 30 μL).
Step a. Sample compounds were dissolved to 10 mM in DMSO then diluted to 2.5 mM (1:4) in DMSO. Typically, compounds were added to an assay plate at 2.5 mM concentration, yielding upon dilution a starting concentration of 50 μM in the assay inhibition curve. Compounds were serial diluted in assay buffer to provide test solutions at lower concentrations.
Step 1. The E. coli. NS3/NS4A-2 was diluted to 4 nM NS3 (1:417.5 of 1.67 μM stock−18 μL 1.67 μM stock+7497 μL assay buffer). The BV NS3/NS4A-2 was diluted to 6 nM NS3 (1:278.3 of 1.67 μM stock−24 μL 1.67 μM stock+6655 μL assay buffer).
Step. 2. Using the manual multichannel pipettor, and being careful not to introduce bubbles into the plate, 50 μL assay buffer was added to wells A01-H01 of a black Costar 96-well polypropylene storage plate.
Step 3. Using the manual multichannel pipettor, and being careful not to introduce bubbles into the plate, 50 μL of diluted NS3/NS4A-2 from step 1 was added to wells A02-H12 of the plate in step 2.
Step 4. Using the manual multichannel pipettor, and being careful not to introduce bubbles into the plate, 25 μL of the wells in drug dilution plate in step a was transferred to corresponding wells in assay plate in step 3. The tips on the multichannel pipettor were changed for each row of compounds transferred.
Step 5. Using the manual multichannel pipettor, and being careful not to introduce bubbles into the plate, the contents of the wells from the assay plate in step 4 were mixed by aspirating and dispensing 35 μL of the 75 μL in each well five times. The tips on multichannel pipettor were changed for each row of wells mixed.
Step 6. The plate was covered with a polystyrene plate lid, and the plate from step 5 containing NS3 protease and sample compounds was pre-incubated 10 minutes at room temperature.
While the plate from step 6 is pre-incubating, the RETS1 substrate was diluted in a 15 mL polypropylene centrifuge tube. The RETS1 substrate was diluted to 8 μM (1:80.75 of 646 μM stock−65 μL 646 μM stock+5184 μL assay buffer).
After the plate in step 6 finished pre-incubating, and using the manual multichannel, 25 μL of substrate was added to all wells on the plate. The contents of the wells of the plate were quickly mixed, as in step 5, mixing 65 μL of the 100 μL in the wells.
The plate was read in kinetic mode on the Molecular Devices SpectraMax Gemini XS plate reader. Reader settings: Read time: 30 minutes, Interval: 36 seconds, Reads: 51, Excitation λ: 335 nm, Emission λ: 495 nm, cutoff: 475 nm, Automix: off, Calibrate: once, PMT: high, Reads/well: 6, Vmax pts: 21 or 28/51 depending on length of linearity of reaction
IC50s are determined using a four parameter curve fit equation, and converted to Ki's using the following Km's: • Full-length E. coli NS3-2.03 μM • Full-length BV NS3-1.74 μM • where Ki=IC50/(1+[S]/Km))

[2] = test system: HCV sub-genomic replicon (I377/NS3-3′) in HuH-7 hepatoma cells (GS4.3); assay: Quantitation by ELISA of NPTII in the HCV sub-genomic replicon, GS4.3; assay type: cell-based; details: Hepatitis C virus, GS4.3 replicon cells, 72 h incubation
Method: The HCV sub-genomic replicon (I377/NS3-3′, accession No. AJ242652), stably maintained in HuH-7 hepatoma cells, was created by Lohmann et al. Science 285: 110-113 (1999). The replicon-containing cell culture, designated GS4.3, was obtained from Dr. Christoph Seeger of the Institute for Cancer Research, Fox Chase Cancer Center, Philadelphia, Pa.
GS4.3 cells were maintained at 37° C., 5% CO2, in DMEM (Gibco 11965-092) supplemented with L-glutamine 200 mM (100×) (Gibco25030-081), non-essential amino acids (NEAA)(Biowhittaker 13-114E), heat-inactivated (HI) Fetal Bovine Serum(FBS)(Hyclone SH3007.03) and […] geneticin (G418)(Gibco 10131-035). Cells were sub-divided 1:3 or 4 every 2-3 days.
24 h prior to the assay, GS4.3 cells were collected, counted, and plated in 96-well plates (Costar 3585) at 7500 cells/well in 100 μL standard maintenance medium (above) and incubated in the conditions above. To initiate the assay, culture medium was removed, cells were washed once with PBS (Gibco 10010-023) and 90 μl Assay Medium (DMEM, L-glutamine, NEAA, 10% HI FBS, no G418) was added. Inhibitors were made as a 10× stock in Assay Medium, (3-fold dilutions from 10 μM to […] final concentration, final DMSO concentration 1%), 10 μL were added to duplicate wells, plates were rocked to mix, and incubated as above for 72 h.
An NPTII Elisa kit was obtained from AGDIA, Inc. (Compound direct ELISA test system for Neomycin Phosphotransferase II, PSP 73000/4800). Manufacturer's instructions were followed, with some modifications. 10×PEB-1 lysis buffer was made up to include 500 μM PMSF (Sigma P7626, 50 mM stock in isopropanol). After 72 h incubation, cells were washed once with PBS and 150 μL PEB-1 with PMSF was added per well. Plates were agitated vigorously for 15 minutes, room temperature, and then frozen at −70° C. Plates were thawed, lysates were mixed thoroughly, and 100 μL were applied to an NPTII Elisa plate. A standard curve was made. Lysate from DMSO-treated control cells was pooled, serially diluted with PEB-1 with PMSF, and applied to duplicate wells of the ELISA plate, in a range of initial lysate amount of 150 μL. In addition, 100 μL buffer alone was applied in duplicate as a blank. Plates were sealed and gently agitated at room temperature for 2 h. Following capture incubation, the plates were washed 5×300 μL with PBS-T (0.5% Tween-20, PBS-T was supplied in the ELISA kit). For detection, a 1× dilution of enzyme conjugate diluent MRS-2 (5×) was made in PBS-T, into which 1:100 dilutions of enzyme conjugates A and B were added, as per instructions. Plates were resealed, and incubated with agitation, covered, room temperature, for 2 h. The washing was then repeated and 100 μL of room temperature TMB substrate was added. After approximately 30 minutes incubation (room temperature, agitation, covered), the reaction was stopped with 50 μL 3M sulfuric acid. Plates were read at 450 nm on a Molecular Devices Versamax plate reader.
Inhibitor effect was expressed as a percentage of DMSO-treated control signal, and inhibition curves were calculated using a 4-parameter equation: y=A+4B−A)/(1+((C/x)̂D))), where C is half-maximal activity or EC50.

CC[C@@H]1C[C@@]12NC(=O)[C@@H]1C[C@H](CN1C(=O)[C@@H](N)C(C)(C)C)Oc1nc3c(cccc3n1C(C)C)CCCCCCCCCC1(CC1)S(=O)(=O)NC2=O [Compound 113]
IC50 [1]: 0.01 to 0.1 µM
EC50 [2]: ≥ 0.1 µM

CC[C@@H]1C[C@@]12NC(=O)[C@@H]1C[C@H](CN1C(=O)[C@@H](NC(=O)OC(C)(C)C)C(C)(C)C)Oc1nc3c(cccc3n1C(C)C)C1=NC(C(C)C)=C(CC/C=C/CCCCS(=O)(=O)NC2=O)S1 [Compound 105]
IC50 [1]: ≤ 0.01 µM
EC50 [2]: ≥ 0.1 µM

CC[C@@H]1C[C@@]12NC(=O)[C@@H]1C[C@H](CN1C(=O)[C@@H](N)C(C)(C)C)Oc1nc3c(cccc3n1C(C)C)C1=NC(C(C)C)=C(CCC/C=C/CCCC3(CC3)S(=O)(=O)NC2=O)S1 [Compound 103]
IC50 [1]: 0.01 to 0.1 µM
EC50 [2]: ≥ 0.1 µM

CC[C@@H]1C[C@@]12NC(=O)[C@@H]1C[C@H](CN1C(=O)[C@@H](NC(=O)OC(C)(C)C)C(C)(C)C)Oc1nc3c(cccc3n1C(C)C)C1=NC(C(C)C)=C(CCCCCCCCS(=O)(=O)NC2=O)S1 [Compound 107]
IC50 [1]: 0.01 to 0.1 µM
EC50 [2]: ≥ 0.1 µM

CC[C@@H]1C[C@@]12NC(=O)[C@@H]1C[C@H](CN1C(=O)[C@@H](N)C(C)(C)C)Oc1nc3c(cccc3n1C(C)C)C1=NC(C(C)C)=C(CCCCCCCCS(=O)(=O)NC2=O)S1 [Compound 110]
IC50 [1]: ≥ 0.1 µM
EC50 [2]: ≥ 0.1 µM

CC[C@@H]1C[C@@]12NC(=O)[C@@H]1C[C@H](CN1C(=O)[C@@H](N)C(C)(C)C)Oc1nc3c(cccc3n1C(C)C)C1=NC(C(C)C)=C(CCCCCCCCC3(CC3)S(=O)(=O)NC2=O)S1 [Compound 104]
IC50 [1]: 0.01 to 0.1 µM
EC50 [2]: ≥ 0.1 µM

CC[C@@H]1C[C@@]12NC(=O)[C@@H]1C[C@H](CN1C(=O)[C@@H](NC(=O)OC(C)(C)C)C(C)(C)C)Oc1nc3c(cccc3n1C(C)C)CCCCCCCCCC1(CC1)S(=O)(=O)NC2=O [Compound 112]
IC50 [1]: ≤ 0.01 µM
EC50 [2]: ≥ 0.1 µM

CC[C@@H]1C[C@@]12NC(=O)[C@@H]1C[C@H](CN1C(=O)[C@@H](NC(=O)OC(C)(C)C)C(C)(C)C)Oc1nc3c(cccc3n1C(C)C)C(=O)NCC=CCCCC1(CC1)S(=O)(=O)NC2=O [Compound 9]
IC50 [1]: ≤ 0.01 µM
EC50 [2]: 0.01 to 0.1 µM

CC[C@@H]1C[C@@]12NC(=O)[C@@H]1C[C@H](CN1C(=O)[C@@H](NC(=O)OC(C)(C)C)C(C)(C)C)Oc1nc3c(cccc3n1C(C)C)C(=O)NCCC=CCCC1(CC1)S(=O)(=O)NC2=O [Compound 10]
IC50 [1]: ≤ 0.01 µM
EC50 [2]: ≥ 0.1 µM

CC[C@@H]1C[C@@]12NC(=O)[C@@H]1C[C@H](CN1C(=O)[C@@H](NC(=O)OC(C)(C)C)C(C)(C)C)Oc1nc3c(cccc3n1C(C)C)C1=NC(C(C)C)=C(CCCCCCC3(CC3)S(=O)(=O)NC2=O)S1 [Compound 15]
IC50 [1]: ≤ 0.01 µM
EC50 [2]: ≥ 0.1 µM

CC[C@@H]1C[C@@]12NC(=O)[C@@H]1C[C@H](CN1C(=O)[C@@H](NC(=O)OC(C)(C)C)C(C)(C)C)Oc1nc3c(cccc3n1C(C)C)C1=NC(C(C)C)=C(CCC=CCCC3(CC3)S(=O)(=O)NC2=O)S1 [Compound 13]
IC50 [1]: ≤ 0.01 µM
EC50 [2]: ≥ 0.1 µM

CC[C@@H]1C[C@@]12NC(=O)[C@@H]1C[C@H](CN1C(=O)[C@@H](NC(=O)OC(C)(C)C)C(C)(C)C)Oc1nc3c(cccc3n1C(C)C)C(=O)NCCC=CCCCC1(CC1)S(=O)(=O)NC2=O [Compound 12]
IC50 [1]: ≤ 0.01 µM
EC50 [2]: 0.01 to 0.1 µM

CC[C@@H]1C[C@@]12NC(=O)[C@@H]1C[C@H](CN1C(=O)[C@@H](NC(=O)OC(C)(C)C)C(C)(C)C)Oc1nc3c(cccc3n1C(C)C)C1=NC(C(C)C)=C(CCCCCCCCC3(CC3)S(=O)(=O)NC2=O)S1 [Compound 102]
IC50 [1]: 0.01 to 0.1 µM
EC50 [2]: ≥ 0.1 µM

CC[C@@H]1C[C@@]12NC(=O)[C@@H]1C[C@H](CN1C(=O)[C@@H](NC(=O)OC(C)(C)C)C(C)(C)C)Oc1nc3c(cccc3n1C(C)C)C(=O)NCCCCCCCC1(CC1)S(=O)(=O)NC2=O [Compound 14]
IC50 [1]: ≤ 0.01 µM
EC50 [2]: ≤ 0.01 µM

CC[C@@H]1C[C@@]12NC(=O)[C@@H]1C[C@H](CN1C(=O)[C@@H](NC(=O)OC(C)(C)C)C(C)(C)C)Oc1nc3c(cccc3n1C(C)C)C1=NC(C(C)C)=C(CCC/C=C/CCCC3(CC3)S(=O)(=O)NC2=O)S1 [Compound 101]
IC50 [1]: ≤ 0.01 µM
EC50 [2]: ≥ 0.1 µM

CC[C@@H]1C[C@@]12NC(=O)[C@@H]1C[C@H](CN1C(=O)[C@@H](NC(=O)OC(C)(C)C)C(C)(C)C)Oc1nc3c(cccc3n1C(C)C)CCCC/C=C/CCCC1(CC1)S(=O)(=O)NC2=O [Compound 111]
IC50 [1]: 0.01 to 0.1 µM
EC50 [2]: ≥ 0.1 µM

CC[C@@H]1C[C@@]12NC(=O)[C@@H]1C[C@H](CN1C(=O)[C@@H](N)C(C)(C)C)Oc1nc3c(cccc3n1C(C)C)C1=NC(C(C)C)=C(CC/C=C/CCCCS(=O)(=O)NC2=O)S1 [Compound 109]
IC50 [1]: ≥ 0.1 µM
EC50 [2]: ≥ 0.1 µM
